Laboratory results taken from PubChem BioAssay (NCI).
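Cultured in 96-well plates, cells were exposed to test compound for 48 hours across five concentrations. TGI is the concentration that stops growth completely.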

Experiments:
Assay in all cases: inhibition of tumour cell growth, NCI panel, 48 h
NCI/ADR-RES ovarian = test system: NCI/ADR-RES ovarian
M14 melanoma = test system: M14 melanoma
SK-MEL-28 melanoma = test system: SK-MEL-28 melanoma
786-0 renal = test system: 786-0 renal
K-562 leukemia = test system: K-562 leukemia
KM12 colon = test system: KM12 colon
SF-268 CNS = test system: SF-268 CNS
SF-539 CNS = test system: SF-539 CNS
UACC-257 melanoma = test system: UACC-257 melanoma
OVCAR-5 ovarian = test system: OVCAR-5 ovarian
SW-620 colon = test system: SW-620 colon
MDA-MB-231 breast = test system: MDA-MB-231 breast
CCRF-CEM leukemia = test system: CCRF-CEM leukemia
PC-3 prostate = test system: PC-3 prostate
IGROV1 ovarian = test system: IGROV1 ovarian
HL-60(TB) leukemia = test system: HL-60(TB) leukemia
HT29 colon = test system: HT29 colon
OVCAR-4 ovarian = test system: OVCAR-4 ovarian
BT-549 breast = test system: BT-549 breast
ACHN renal = test system: ACHN renal
TK-10 renal = test system: TK-10 renal
SR leukemia = test system: SR leukemia
NCI-H460 lung = test system: NCI-H460 lung
SK-MEL-2 melanoma = test system: SK-MEL-2 melanoma
COLO 205 colon = test system: COLO 205 colon
LOX IMVI melanoma = test system: LOX IMVI melanoma
MCF7 breast = test system: MCF7 breast
SF-295 CNS = test system: SF-295 CNS
A549 NSCLC = test system: A549 NSCLC
HCT-116 colon = test system: HCT-116 colon
HOP-62 NSCLC = test system: HOP-62 NSCLC
UO-31 renal = test system: UO-31 renal
SK-OV-3 ovarian = test system: SK-OV-3 ovarian
MALME-3M melanoma = test system: MALME-3M melanoma
A498 renal = test system: A498 renal
U251 CNS = test system: U251 CNS
UACC-62 melanoma = test system: UACC-62 melanoma
CAKI-1 renal = test system: CAKI-1 renal
RXF 393 renal = test system: RXF 393 renal
NCI-H226 lung = test system: NCI-H226 lung
HOP-92 NSCLC = test system: HOP-92 NSCLC
HCC-2998 colon = test system: HCC-2998 colon
OVCAR-8 ovarian = test system: OVCAR-8 ovarian
MDA-N = test system: MDA-N
EKVX NSCLC = test system: EKVX NSCLC
HCT-15 colon = test system: HCT-15 colon
SN12C renal = test system: SN12C renal
SK-MEL-5 melanoma = test system: SK-MEL-5 melanoma
DU-145 prostate = test system: DU-145 prostate
HS 578T breast = test system: HS 578T breast
MOLT-4 leukemia = test system: MOLT-4 leukemia
SNB-75 CNS = test system: SNB-75 CNS
OVCAR-3 ovarian = test system: OVCAR-3 ovarian
NCI-H23 lung = test system: NCI-H23 lung
RPMI-8226 leukemia = test system: RPMI-8226 leukemia
NCI-H522 lung = test system: NCI-H522 lung
T-47D breast = test system: T-47D breast
MDA-MB-435 = test system: MDA-MB-435
SNB-19 CNS = test system: SNB-19 CNS

O=[N+]([O-])c1cccc2nccc(NCC(O)CO)c12 (stereo not given)
TGI (NCI/ADR-RES ovarian): 73.3 µM | TGI (M14 melanoma): 32.9 µM | TGI (SK-MEL-28 melanoma): 34 µM | TGI (786-0 renal): 35 µM | TGI (K-562 leukemia): > 93.3 µM | TGI (KM12 colon): 28.7 µM | TGI (SF-268 CNS): 67.9 µM | TGI (SF-539 CNS): 36.9 µM | TGI (UACC-257 melanoma): 30 µM | TGI (OVCAR-5 ovarian): 42.1 µM | TGI (SW-620 colon): 36.1 µM | TGI (MDA-MB-231 breast): 45 µM | TGI (CCRF-CEM leukemia): > 89.9 µM | TGI (PC-3 prostate): 38.5 µM | TGI (IGROV1 ovarian): 38.9 µM | TGI (HL-60(TB) leukemia): 49.4 µM | TGI (HT29 colon): 42 µM | TGI (OVCAR-4 ovarian): 43 µM | TGI (BT-549 breast): 29.6 µM | TGI (ACHN renal): 45.2 µM | TGI (TK-10 renal): 44 µM | TGI (SR leukemia): 28 µM | TGI (NCI-H460 lung): 26.3 µM | TGI (SK-MEL-2 melanoma): 26 µM | TGI (COLO 205 colon): 33.5 µM | TGI (LOX IMVI melanoma): 54.7 µM | TGI (MCF7 breast): 40 µM | TGI (SF-295 CNS): 53.7 µM | TGI (A549 NSCLC): 36.4 µM | TGI (HCT-116 colon): 26.8 µM | TGI (HOP-62 NSCLC): 33.6 µM | TGI (UO-31 renal): 37.2 µM | TGI (SK-OV-3 ovarian): 74.9 µM | TGI (MALME-3M melanoma): 28.4 µM | TGI (A498 renal): 19.3 µM | TGI (U251 CNS): 32.6 µM | TGI (UACC-62 melanoma): 31.5 µM | TGI (CAKI-1 renal): 35.8 µM | TGI (RXF 393 renal): 26.4 µM | TGI (NCI-H226 lung): 19.4 µM | TGI (HOP-92 NSCLC): 53.8 µM | TGI (HCC-2998 colon): 25.8 µM | TGI (OVCAR-8 ovarian): 33.2 µM | TGI (MDA-N): 31.8 µM | TGI (EKVX NSCLC): 27.6 µM | TGI (HCT-15 colon): 22.4 µM | TGI (SN12C renal): 41 µM | TGI (SK-MEL-5 melanoma): 25.8 µM | TGI (DU-145 prostate): 75.6 µM | TGI (HS 578T breast): 40.7 µM | TGI (MOLT-4 leukemia): > 80.6 µM | TGI (SNB-75 CNS): > 63.9 µM | TGI (OVCAR-3 ovarian): 33.7 µM | TGI (NCI-H23 lung): 43.1 µM | TGI (RPMI-8226 leukemia): 61.2 µM | TGI (NCI-H522 lung): 26 µM | TGI (T-47D breast): 96.1 µM | TGI (MDA-MB-435): 37.8 µM

CC(C)/C=N\n1c(N)c(C#N)c(C#N)c1C(C)C
TGI (NCI/ADR-RES ovarian): 66.3 µM | TGI (M14 melanoma): > 100 µM | TGI (786-0 renal): > 100 µM | TGI (K-562 leukemia): > 100 µM | TGI (KM12 colon): > 100 µM | TGI (SF-268 CNS): > 100 µM | TGI (SF-539 CNS): 52.5 µM | TGI (UACC-257 melanoma): 50.3 µM | TGI (SNB-19 CNS): > 100 µM | TGI (OVCAR-5 ovarian): > 100 µM | TGI (SW-620 colon): > 100 µM | TGI (MDA-MB-231 breast): > 100 µM | TGI (CCRF-CEM leukemia): > 100 µM | TGI (PC-3 prostate): 47.2 µM | TGI (IGROV1 ovarian): 77.8 µM | TGI (HL-60(TB) leukemia): > 100 µM | TGI (HT29 colon): > 100 µM | TGI (OVCAR-4 ovarian): 84.9 µM | TGI (BT-549 breast): > 100 µM | TGI (ACHN renal): 91.1 µM | TGI (TK-10 renal): > 100 µM | TGI (SR leukemia): > 100 µM | TGI (SK-MEL-2 melanoma): 58 µM | TGI (COLO 205 colon): 45.7 µM | TGI (LOX IMVI melanoma): 97.8 µM | TGI (MCF7 breast): > 100 µM | TGI (SF-295 CNS): 73.7 µM | TGI (A549 NSCLC): > 100 µM | TGI (HCT-116 colon): > 100 µM | TGI (HOP-62 NSCLC): > 100 µM | TGI (UO-31 renal): 64.2 µM | TGI (SK-OV-3 ovarian): > 100 µM | TGI (MALME-3M melanoma): 98.1 µM | TGI (A498 renal): 69.5 µM | TGI (U251 CNS): > 100 µM | TGI (UACC-62 melanoma): 34.7 µM | TGI (CAKI-1 renal): > 100 µM | TGI (RXF 393 renal): > 100 µM | TGI (NCI-H226 lung): 64.6 µM | TGI (HOP-92 NSCLC): 38.3 µM | TGI (HCC-2998 colon): 36.4 µM | TGI (OVCAR-8 ovarian): 63.7 µM | TGI (MDA-N): 76.6 µM | TGI (EKVX NSCLC): 72.8 µM | TGI (HCT-15 colon): > 100 µM | TGI (SN12C renal): > 100 µM | TGI (SK-MEL-5 melanoma): 34.1 µM | TGI (DU-145 prostate): > 100 µM | TGI (HS 578T breast): 95.3 µM | TGI (MOLT-4 leukemia): 63.4 µM | TGI (SNB-75 CNS): 40.4 µM | TGI (OVCAR-3 ovarian): 62.1 µM | TGI (NCI-H23 lung): 75.4 µM | TGI (RPMI-8226 leukemia): 75.2 µM | TGI (NCI-H522 lung): > 100 µM | TGI (T-47D breast): 66.3 µM | TGI (MDA-MB-435): 95.1 µM
